{"source": "ChEMBL document CHEMBL4396872", "about": "“Pharmacokinetics-Driven Optimization of 4(3 H)-Pyrimidinones as Phosphodiesterase Type 5 Inhibitors Leading to TPN171, a Clinical Candidate for the Treatment of Pulmonary Arterial Hypertension” (J Med Chem, 2019)", "key": {"[1]": {"test": "Metabolic stability in human liver microsomes assessed as parent compound remaining at 1 uM in presence of NADPH after 30 mins by LC-MS/MS analysis", "assay_type": "ADME, Microsome", "conditions": "read-out: Stability"}, "Homo sapiens": {"organism": "Homo sapiens", "test": "Selectivity ratio of IC50 for N-terminal GST-tagged human PDE6C to IC50 for N-terminal GST-tagged human PDE5A1"}, "[2]": {"biological_target": "cGMP-specific 3',5'-cyclic phosphodiesterase (Homo sapiens, UniProt O76074)", "test": "Inhibition of N-terminal GST-tagged human PDE5A1 expressed in baculovirus infected sf9 cells using [3H]cGMP as substrate measured after 30 mins by scintillation proximity assay"}, "Rattus norvegicus [3]": {"test_system": "Rattus norvegicus", "test": "[…] activity in MCT-induced pulmonary arterial hypertension Sprague-Dawley rat model assessed as reduction in mean pulmonary artery pressure at 1 mg/kg administered once daily for 21 days starting from 21 days post-MCT challenge by right cardiac catheter method", "assay_type": "functional, organism-based"}, "Rattus norvegicus [4]": {"test_system": "Rattus norvegicus", "test": "[…] activity in MCT-induced pulmonary arterial hypertension Sprague-Dawley rat model assessed as reduction in mean pulmonary artery pressure at 100 mg/kg administered once daily for 21 days starting from 21 days post-MCT challenge by right cardiac catheter method", "assay_type": "functional, organism-based"}, "Rattus norvegicus [5]": {"test_system": "Rattus norvegicus", "test": "[…] activity in MCT-induced pulmonary arterial hypertension Sprague-Dawley rat model assessed as reduction in mean pulmonary artery pressure at 25 mg/kg administered once daily for 21 days starting from 21 days post-MCT challenge by right cardiac catheter method", "assay_type": "functional, organism-based"}, "Rattus norvegicus [6]": {"test_system": "Rattus norvegicus", "test": "Antihypertensive activity in spontaneously hypertensive rat assessed as reduction in mean arterial pressure at 20 mg/kg administered via single gavage measured up to 24 hrs", "assay_type": "functional, organism-based"}, "[7]": {"test": "Half-life in Sprague-Dawley rat at 1 mg/kg, po measured up to 24 hrs by HPLC analysis", "assay_type": "ADME, organism-based", "conditions": "in vivo"}, "[8]": {"test": "Cmax in Sprague-Dawley rat at 1 mg/kg, po measured up to 24 hrs by HPLC analysis", "assay_type": "ADME, organism-based", "design": "dose 1 mg/kg, route oral", "conditions": "in vivo"}, "Rattus norvegicus [9]": {"test_system": "Rattus norvegicus", "test": "Antihypertensive activity in spontaneously hypertensive rat assessed as reduction in mean arterial pressure at 20 mg/kg administered via single gavage and measured at 2 hrs", "assay_type": "functional, organism-based"}, "[10]": {"test": "Half-life in Sprague-Dawley rat at 4 mg/kg, iv measured up to 24 hrs by HPLC analysis", "assay_type": "ADME, organism-based", "conditions": "in vivo"}, "Rattus norvegicus [11]": {"test_system": "Rattus norvegicus", "test": "Antihypertensive activity in spontaneously hypertensive rat assessed as reduction in mean arterial pressure at 20 mg/kg administered via single gavage and measured at 4 hrs", "assay_type": "functional, organism-based"}, "[12]": {"test": "Clearance in Sprague-Dawley rat at 4 mg/kg, iv measured up to 24 hrs by HPLC analysis", "assay_type": "ADME, organism-based", "conditions": "in vivo"}, "[13]": {"test": "Volume of distribution at steady state in Sprague-Dawley rat at 4 mg/kg, iv measured up to 24 hrs by HPLC analysis", "assay_type": "ADME, organism-based", "conditions": "in vivo, read-out: Vdss"}, "[14]": {"test": "Oral bioavailability in Sprague-Dawley rat at 1 mg/kg measured up to 24 hrs by HPLC analysis", "assay_type": "ADME, organism-based", "conditions": "in vivo"}, "[15]": {"test": "Tmax in Sprague-Dawley rat at 1 mg/kg, po measured up to 24 hrs by HPLC analysis", "assay_type": "ADME, organism-based", "conditions": "in vivo"}, "Rattus norvegicus [16]": {"test_system": "Rattus norvegicus", "test": "Antihypertensive activity in spontaneously hypertensive rat assessed as reduction in mean arterial pressure at 20 mg/kg administered via single gavage after 6 hrs", "assay_type": "functional, organism-based"}, "Phosphodiesterase 1": {"biological_target": "Phosphodiesterase 1 (Homo sapiens, UniProt P54750+Q01064+Q14123)", "test": "Inhibition of N-terminal GST-tagged human PDE1 expressed in baculovirus infected sf9 cells using [3H]cAMP as substrate measured after 30 mins by scintillation proximity assay"}, "[17]": {"test": "Volume of distribution at steady state in iv dosed rat", "assay_type": "ADME, organism-based", "conditions": "in vivo"}, "[18]": {"biological_target": "High affinity cGMP-specific 3',5'-cyclic phosphodiesterase 9A (Homo sapiens, UniProt O76083)", "sequence (O76083 whole entry)": "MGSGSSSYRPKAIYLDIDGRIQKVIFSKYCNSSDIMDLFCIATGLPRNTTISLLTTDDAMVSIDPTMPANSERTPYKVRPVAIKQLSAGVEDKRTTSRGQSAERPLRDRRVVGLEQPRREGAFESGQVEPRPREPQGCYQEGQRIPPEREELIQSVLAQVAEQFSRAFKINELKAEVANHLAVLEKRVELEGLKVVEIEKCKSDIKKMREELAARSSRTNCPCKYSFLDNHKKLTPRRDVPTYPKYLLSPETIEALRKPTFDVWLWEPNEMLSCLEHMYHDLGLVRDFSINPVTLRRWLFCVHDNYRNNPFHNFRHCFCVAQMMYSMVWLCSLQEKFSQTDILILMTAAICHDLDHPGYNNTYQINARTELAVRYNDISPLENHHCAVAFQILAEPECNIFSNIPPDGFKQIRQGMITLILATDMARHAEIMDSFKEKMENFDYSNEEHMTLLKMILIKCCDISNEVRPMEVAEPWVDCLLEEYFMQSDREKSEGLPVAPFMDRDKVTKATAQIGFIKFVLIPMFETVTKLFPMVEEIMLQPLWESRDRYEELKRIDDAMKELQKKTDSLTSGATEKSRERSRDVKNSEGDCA", "test": "Inhibition of N-terminal GST-tagged full length human PDE9A2 expressed in baculovirus infected sf9 cells using [3H]cGMP as substrate measured after 30 mins by scintillation proximity assay"}, "Phosphodiesterase 7": {"biological_target": "Phosphodiesterase 7 (Homo sapiens, UniProt Q13946+Q9NP56)", "test": "Inhibition of N-terminal GST-tagged human PDE7 expressed in baculovirus infected sf9 cells using [3H]cAMP as substrate measured after 30 mins by scintillation proximity assay"}, "[19]": {"biological_target": "cGMP-dependent 3',5'-cyclic phosphodiesterase (Homo sapiens, UniProt O00408)", "sequence (O00408 whole entry)": "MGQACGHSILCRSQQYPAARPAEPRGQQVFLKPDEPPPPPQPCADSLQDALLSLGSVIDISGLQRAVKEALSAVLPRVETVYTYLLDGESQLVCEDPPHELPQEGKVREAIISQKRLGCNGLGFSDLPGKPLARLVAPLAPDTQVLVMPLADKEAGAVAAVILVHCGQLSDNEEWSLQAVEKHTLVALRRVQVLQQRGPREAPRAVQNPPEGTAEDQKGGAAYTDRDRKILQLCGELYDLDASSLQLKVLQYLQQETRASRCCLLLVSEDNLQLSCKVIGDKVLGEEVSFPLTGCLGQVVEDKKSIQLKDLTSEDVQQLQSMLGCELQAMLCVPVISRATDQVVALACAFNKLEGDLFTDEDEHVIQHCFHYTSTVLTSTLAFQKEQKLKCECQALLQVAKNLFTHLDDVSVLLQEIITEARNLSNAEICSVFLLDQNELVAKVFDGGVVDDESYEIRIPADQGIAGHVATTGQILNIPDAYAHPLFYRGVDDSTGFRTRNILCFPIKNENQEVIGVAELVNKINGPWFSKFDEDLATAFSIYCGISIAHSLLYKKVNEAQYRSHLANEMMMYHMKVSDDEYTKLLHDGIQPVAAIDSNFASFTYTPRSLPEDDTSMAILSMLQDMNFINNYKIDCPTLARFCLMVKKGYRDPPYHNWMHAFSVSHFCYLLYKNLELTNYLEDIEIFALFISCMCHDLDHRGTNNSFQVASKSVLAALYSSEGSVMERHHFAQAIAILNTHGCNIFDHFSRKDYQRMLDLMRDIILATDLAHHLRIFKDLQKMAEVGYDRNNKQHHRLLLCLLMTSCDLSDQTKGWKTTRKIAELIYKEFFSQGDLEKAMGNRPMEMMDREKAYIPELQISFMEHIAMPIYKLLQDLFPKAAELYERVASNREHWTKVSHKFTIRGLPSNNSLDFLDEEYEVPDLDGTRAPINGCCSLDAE", "test": "Inhibition of human PDE2A1 expressed in baculovirus infected sf9 cells using [3H]cAMP as substrate measured after 30 mins by scintillation proximity assay"}, "[20]": {"biological_target": "cAMP and cAMP-inhibited cGMP 3',5'-cyclic phosphodiesterase 10A (Homo sapiens, UniProt Q9Y233)", "sequence (Q9Y233 whole entry)": "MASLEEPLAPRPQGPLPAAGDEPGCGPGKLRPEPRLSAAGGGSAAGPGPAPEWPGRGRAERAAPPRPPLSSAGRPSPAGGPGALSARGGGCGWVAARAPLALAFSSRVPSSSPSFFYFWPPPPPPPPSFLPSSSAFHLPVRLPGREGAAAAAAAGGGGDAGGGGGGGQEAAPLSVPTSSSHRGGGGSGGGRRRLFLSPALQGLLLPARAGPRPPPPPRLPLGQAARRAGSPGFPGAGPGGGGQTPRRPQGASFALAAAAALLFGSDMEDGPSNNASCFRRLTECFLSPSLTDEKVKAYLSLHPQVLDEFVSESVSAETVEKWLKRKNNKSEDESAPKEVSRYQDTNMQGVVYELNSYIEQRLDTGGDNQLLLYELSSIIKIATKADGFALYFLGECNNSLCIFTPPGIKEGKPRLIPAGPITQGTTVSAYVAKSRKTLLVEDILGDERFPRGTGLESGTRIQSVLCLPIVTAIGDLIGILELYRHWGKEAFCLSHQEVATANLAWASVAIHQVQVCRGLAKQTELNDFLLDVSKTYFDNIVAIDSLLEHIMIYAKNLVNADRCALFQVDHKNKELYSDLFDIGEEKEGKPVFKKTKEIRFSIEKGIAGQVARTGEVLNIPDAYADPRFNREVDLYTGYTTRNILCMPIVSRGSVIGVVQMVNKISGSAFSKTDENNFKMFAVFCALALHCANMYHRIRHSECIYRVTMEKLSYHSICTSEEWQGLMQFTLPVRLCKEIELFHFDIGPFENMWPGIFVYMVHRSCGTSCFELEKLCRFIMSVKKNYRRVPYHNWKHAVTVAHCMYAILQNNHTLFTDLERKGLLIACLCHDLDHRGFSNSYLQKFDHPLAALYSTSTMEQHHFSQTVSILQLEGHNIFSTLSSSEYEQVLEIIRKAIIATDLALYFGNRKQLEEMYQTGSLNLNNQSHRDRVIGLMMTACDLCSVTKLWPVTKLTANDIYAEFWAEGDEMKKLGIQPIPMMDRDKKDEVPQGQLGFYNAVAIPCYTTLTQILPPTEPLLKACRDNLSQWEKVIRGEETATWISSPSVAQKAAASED", "test": "Inhibition of N-terminal GST-tagged human PDE10A expressed in baculovirus infected sf9 cells using [3H]cAMP as substrate measured after 30 mins by scintillation proximity assay"}, "Phosphodiesterase 3": {"biological_target": "Phosphodiesterase 3 (Homo sapiens, UniProt Q14432+Q13370)", "test": "Inhibition of N-terminal GST-tagged human PDE3 expressed in baculovirus infected sf9 cells using [3H]cAMP as substrate measured after 30 mins by scintillation proximity assay"}, "[21]": {"biological_target": "High affinity cAMP-specific and IBMX-insensitive 3',5'-cyclic phosphodiesterase 8A (Homo sapiens, UniProt O60658)", "sequence (O60658 whole entry)": "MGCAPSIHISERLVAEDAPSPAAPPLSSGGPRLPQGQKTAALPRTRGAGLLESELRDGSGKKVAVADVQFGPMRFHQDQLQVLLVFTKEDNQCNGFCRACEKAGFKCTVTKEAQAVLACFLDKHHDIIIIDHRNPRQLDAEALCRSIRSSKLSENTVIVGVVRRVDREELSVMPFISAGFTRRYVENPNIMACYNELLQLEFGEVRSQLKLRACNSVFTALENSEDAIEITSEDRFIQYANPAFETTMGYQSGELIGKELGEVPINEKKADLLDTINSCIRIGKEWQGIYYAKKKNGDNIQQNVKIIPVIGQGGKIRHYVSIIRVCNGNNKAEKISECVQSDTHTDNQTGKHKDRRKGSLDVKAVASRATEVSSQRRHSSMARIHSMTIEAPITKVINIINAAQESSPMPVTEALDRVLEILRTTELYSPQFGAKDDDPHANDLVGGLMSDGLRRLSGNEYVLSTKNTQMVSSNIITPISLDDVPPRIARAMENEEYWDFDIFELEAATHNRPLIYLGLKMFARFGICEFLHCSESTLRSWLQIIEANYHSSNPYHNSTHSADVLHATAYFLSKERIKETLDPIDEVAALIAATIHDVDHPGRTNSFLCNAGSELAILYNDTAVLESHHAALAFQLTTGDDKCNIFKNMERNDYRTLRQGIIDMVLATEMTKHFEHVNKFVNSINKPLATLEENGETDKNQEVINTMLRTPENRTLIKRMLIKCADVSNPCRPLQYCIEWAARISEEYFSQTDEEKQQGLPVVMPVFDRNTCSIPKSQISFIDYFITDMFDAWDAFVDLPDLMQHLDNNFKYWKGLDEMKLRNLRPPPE", "test": "Inhibition of N-terminal GST-tagged full length human PDE8A1 expressed in baculovirus infected sf9 cells using [3H]cAMP as substrate measured after 30 mins by scintillation proximity assay"}, "[22]": {"test": "Clearance in iv dosed rat", "assay_type": "ADME, organism-based", "conditions": "in vivo"}}, "note": "Activity calls are given as the source filed them. No cut-off for these calls is given here.", "data": [{"smiles": "CCCOc1ccc(NS(C)(=O)=O)cc1-c1nc(CC)c(CC)c(=O)[nH]1", "values": [{"measurement": "remaining at 0.5 h, 1 µM", "setting": "[1]", "value": 27, "unit": "%"}, {"measurement": "Ratio IC50", "setting": "Homo sapiens", "value": 28}]}, {"smiles": "CCCOc1ccc(NC(=O)C2CCN(C)CC2)cc1-c1nc(CC)c(CC)c(=O)[nH]1", "values": [{"measurement": "IC50", "setting": "[2]", "value": 0.79, "unit": "nM"}, {"measurement": "Ratio IC50", "setting": "Homo sapiens", "value": 24}]}, {"smiles": "COc1ccccc1Oc1c(NS(=O)(=O)c2ccc(C(C)(C)C)cc2)nc(-c2ncccn2)nc1OCCO", "values": [{"measurement": "Activity", "setting": "Rattus norvegicus [3]", "value": "Active"}, {"measurement": "Activity", "setting": "Rattus norvegicus [4]", "value": "Active"}, {"measurement": "Activity", "setting": "Rattus norvegicus [5]", "value": "Active"}]}, {"smiles": "CCCOc1ccc(N)cc1-c1nc(CC)c(CC)c(=O)[nH]1", "values": [{"measurement": "IC50", "setting": "[2]", "value": 5.33, "unit": "nM"}, {"measurement": "Ratio IC50", "setting": "Homo sapiens", "value": 10}]}, {"smiles": "CCCOc1ccc(S(=O)(=O)N2CCC[C@H]2C(=O)O)cc1-c1nc(CC)c(CC)c(=O)[nH]1", "values": [{"measurement": "IC50", "setting": "[2]", "value": 2.02, "unit": "nM"}, {"measurement": "Ratio IC50", "setting": "Homo sapiens", "value": 20}]}, {"smiles": "CCCOc1ccc(S(=O)(=O)N(CCO)CCN2CCOCC2)cc1-c1nc(CC)c(CC)c(=O)[nH]1", "values": [{"measurement": "Ratio IC50", "setting": "Homo sapiens", "value": 10}]}, {"smiles": "CCCOc1ccc(S(=O)(=O)NCCC(=O)O)cc1-c1nc(CC)c(CC)c(=O)[nH]1", "values": [{"measurement": "remaining at 0.5 h, 1 µM", "setting": "[1]", "value": 100, "unit": "%"}, {"measurement": "Activity", "setting": "Rattus norvegicus [6]", "value": "inactive"}, {"measurement": "IC50", "setting": "[2]", "value": 1.69, "unit": "nM"}, {"measurement": "Ratio IC50", "setting": "Homo sapiens", "value": 86}]}, {"smiles": "CCCc1nn(C)c2c(=O)[nH]c(-c3cc(S(=O)(=O)N4CCN(C)CC4)ccc3OCC)nc12", "values": [{"measurement": "Activity", "setting": "Rattus norvegicus [3]", "value": "Active"}, {"measurement": "half-life", "setting": "[7]", "value": 0.65, "unit": "h"}, {"measurement": "Activity", "setting": "Rattus norvegicus [4]", "value": "Active"}, {"measurement": "Cmax", "setting": "[8]", "value": 76, "unit": "ng/mL"}, {"measurement": "Activity", "setting": "Rattus norvegicus [9]", "value": "Active"}, {"measurement": "half-life", "setting": "[10]", "value": 1.1, "unit": "h"}, {"measurement": "Activity", "setting": "Rattus norvegicus [11]", "value": "inactive"}, {"measurement": "clearance", "setting": "[12]", "value": 30.5, "unit": "mL/min/kg"}, {"measurement": "Vd", "setting": "[13]", "value": 1.6, "unit": "L/kg"}, {"measurement": "bioavailability", "setting": "[14]", "value": 34, "unit": "%"}, {"measurement": "Activity", "setting": "Rattus norvegicus [5]", "value": "Active"}, {"measurement": "Tmax", "setting": "[15]", "value": 1.6, "unit": "h"}, {"measurement": "Activity", "setting": "Rattus norvegicus [16]", "value": "inactive"}]}, {"smiles": "CN1CC(=O)N2[C@H](c3ccc4c(c3)OCO4)c3[nH]c4ccccc4c3C[C@@H]2C1=O", "values": [{"measurement": "IC50", "setting": "Phosphodiesterase 1", "value": "> 10000", "unit": "nM"}, {"measurement": "Vdss", "setting": "[17]", "value": 5.2, "unit": "L/kg"}, {"measurement": "IC50", "setting": "[18]", "value": "> 10000", "unit": "nM"}, {"measurement": "IC50", "setting": "Phosphodiesterase 7", "value": "> 10000", "unit": "nM"}, {"measurement": "IC50", "setting": "[19]", "value": "> 10000", "unit": "nM"}, {"measurement": "IC50", "setting": "[20]", "value": "> 10000", "unit": "nM"}, {"measurement": "IC50", "setting": "Phosphodiesterase 3", "value": "> 10000", "unit": "nM"}, {"measurement": "IC50", "setting": "[21]", "value": "> 10000", "unit": "nM"}, {"measurement": "CL", "setting": "[22]", "value": 5.17, "unit": "mL/min/kg"}]}]}
